What all share (format): biochemical
In experiment [1] the target is T1, Human JAK1 (Homo sapiens, UniProt P23458).
T1 construct: purchased Millipore, Germany
The experiment can be described thus: In-vitro kinase inhibition test, JAK1. To be noted: for inhibition at 1 µM: compound at 1 uM, read-out: JAK1 kinase-phosphorylation inhibitory level (% inhibition); for JAK1/JAK2: ratio of % inhibition of JAK1 to JAK2 at 1 uM.

In experiment [2] the target is T2, Human JAK2 (Homo sapiens, UniProt O60674).
T2 construct: purchased Millipore, Germany
The experiment can be described thus: In-vitro kinase inhibition test, JAK2. To be noted: compound at 1 uM; read-out: JAK2 kinase-phosphorylation inhibitory level (% inhibition).
Procedure: (§1) Human-derived JAK1, JAK2, JAK3 and TYK2 (Millipore, Germany) were used as kinases. Each kinase was diluted with an appropriate buffer as described below, and then mixed with reaction reagents.
(§2) 3-morpholinopropane-1-sulfonic acid (MOPS) and EDTA were dissolved in deionized water at a concentration of 20 mM and 1 mM, respectively, and then 100 μL of β-mercaptoethanol, 10 μL of Brij-35™, 5 mL of glycerol, and 100 mg of bovine serum albumin (BSA), each per 100 mL of the solution, were added to the solution, thereby preparing a dilution buffer for JAK2, JAK3, and TYK2.
(§3) Each compound was dissolved in a 100%-DMSO solution at a concentration of about 50 μM. This prepared solution was reacted with reaction reagents in each well of a 96-well plate until a final concentration of the compound reached 1 μM. A detailed experimental method for each kinase is as follows.
(§4) After reaction for about 40 minutes at room temperature, the reaction was stopped by adding 5 uL of a 3% (v/v) phosphoric acid solution.
(§5) The inhibitory levels (% inhibition) represent a percentage of reduction in phosphorylation activity in each test group with respect to the phosphorylation activity of a corresponding kinase in a negative control group lacking any of the compounds synthesized in the examples. % inhibition=[(Scintillation value of Test compound non-treatment group−Scintillation value of Test compound treatment group)/(Scintillation value of Test compound non-treatment group)]×100

In experiment [3] the target is T3, Human JAK3 (Homo sapiens, UniProt P52333).
T3 construct: purchased Millipore, Germany
T3 sequence (P52333 1-1124): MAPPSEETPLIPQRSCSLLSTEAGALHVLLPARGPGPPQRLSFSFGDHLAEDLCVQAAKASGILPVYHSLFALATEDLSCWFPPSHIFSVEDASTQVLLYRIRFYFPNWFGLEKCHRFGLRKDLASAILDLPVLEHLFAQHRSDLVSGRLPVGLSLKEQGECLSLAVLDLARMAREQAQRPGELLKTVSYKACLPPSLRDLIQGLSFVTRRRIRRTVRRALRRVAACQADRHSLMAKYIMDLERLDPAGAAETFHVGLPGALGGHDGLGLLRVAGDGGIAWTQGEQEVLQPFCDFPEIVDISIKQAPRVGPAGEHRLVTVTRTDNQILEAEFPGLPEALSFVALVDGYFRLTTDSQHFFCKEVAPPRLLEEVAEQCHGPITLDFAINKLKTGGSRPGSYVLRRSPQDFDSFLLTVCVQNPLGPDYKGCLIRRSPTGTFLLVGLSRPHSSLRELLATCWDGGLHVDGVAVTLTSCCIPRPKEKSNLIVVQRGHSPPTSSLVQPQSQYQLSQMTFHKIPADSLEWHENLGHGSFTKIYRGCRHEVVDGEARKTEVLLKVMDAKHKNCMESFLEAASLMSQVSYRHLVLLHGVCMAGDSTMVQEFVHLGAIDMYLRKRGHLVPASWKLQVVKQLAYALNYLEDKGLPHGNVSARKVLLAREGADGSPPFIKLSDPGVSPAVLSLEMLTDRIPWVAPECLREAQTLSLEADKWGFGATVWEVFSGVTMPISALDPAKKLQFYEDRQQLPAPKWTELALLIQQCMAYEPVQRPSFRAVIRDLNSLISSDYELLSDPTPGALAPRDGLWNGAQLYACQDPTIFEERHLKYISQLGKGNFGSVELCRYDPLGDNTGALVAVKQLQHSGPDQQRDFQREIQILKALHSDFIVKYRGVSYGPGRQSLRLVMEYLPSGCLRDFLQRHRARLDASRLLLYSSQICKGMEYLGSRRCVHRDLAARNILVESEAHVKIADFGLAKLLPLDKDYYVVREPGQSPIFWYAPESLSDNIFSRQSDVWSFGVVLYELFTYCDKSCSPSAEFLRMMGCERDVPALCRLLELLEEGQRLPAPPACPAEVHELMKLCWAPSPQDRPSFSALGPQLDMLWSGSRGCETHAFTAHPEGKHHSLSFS
The experiment can be described thus: In-vitro kinase inhibition test, JAK3. The following applies: compound at 1 uM; read-out: JAK3 kinase-phosphorylation inhibitory level (% inhibition).

For experiment [4], the target named is T4, Human TYK2 (Homo sapiens, UniProt P29597).
T4 construct: purchased Millipore, Germany
The experiment can be described thus: In-vitro kinase inhibition test, TYK2. The following applies: compound at 1 uM; read-out: TYK2 kinase-phosphorylation inhibitory level (% inhibition).
Procedure: as §1, §2, §3, §4, §5

Molecules are shown by their SMILES.

T1 sequence (P23458 whole entry): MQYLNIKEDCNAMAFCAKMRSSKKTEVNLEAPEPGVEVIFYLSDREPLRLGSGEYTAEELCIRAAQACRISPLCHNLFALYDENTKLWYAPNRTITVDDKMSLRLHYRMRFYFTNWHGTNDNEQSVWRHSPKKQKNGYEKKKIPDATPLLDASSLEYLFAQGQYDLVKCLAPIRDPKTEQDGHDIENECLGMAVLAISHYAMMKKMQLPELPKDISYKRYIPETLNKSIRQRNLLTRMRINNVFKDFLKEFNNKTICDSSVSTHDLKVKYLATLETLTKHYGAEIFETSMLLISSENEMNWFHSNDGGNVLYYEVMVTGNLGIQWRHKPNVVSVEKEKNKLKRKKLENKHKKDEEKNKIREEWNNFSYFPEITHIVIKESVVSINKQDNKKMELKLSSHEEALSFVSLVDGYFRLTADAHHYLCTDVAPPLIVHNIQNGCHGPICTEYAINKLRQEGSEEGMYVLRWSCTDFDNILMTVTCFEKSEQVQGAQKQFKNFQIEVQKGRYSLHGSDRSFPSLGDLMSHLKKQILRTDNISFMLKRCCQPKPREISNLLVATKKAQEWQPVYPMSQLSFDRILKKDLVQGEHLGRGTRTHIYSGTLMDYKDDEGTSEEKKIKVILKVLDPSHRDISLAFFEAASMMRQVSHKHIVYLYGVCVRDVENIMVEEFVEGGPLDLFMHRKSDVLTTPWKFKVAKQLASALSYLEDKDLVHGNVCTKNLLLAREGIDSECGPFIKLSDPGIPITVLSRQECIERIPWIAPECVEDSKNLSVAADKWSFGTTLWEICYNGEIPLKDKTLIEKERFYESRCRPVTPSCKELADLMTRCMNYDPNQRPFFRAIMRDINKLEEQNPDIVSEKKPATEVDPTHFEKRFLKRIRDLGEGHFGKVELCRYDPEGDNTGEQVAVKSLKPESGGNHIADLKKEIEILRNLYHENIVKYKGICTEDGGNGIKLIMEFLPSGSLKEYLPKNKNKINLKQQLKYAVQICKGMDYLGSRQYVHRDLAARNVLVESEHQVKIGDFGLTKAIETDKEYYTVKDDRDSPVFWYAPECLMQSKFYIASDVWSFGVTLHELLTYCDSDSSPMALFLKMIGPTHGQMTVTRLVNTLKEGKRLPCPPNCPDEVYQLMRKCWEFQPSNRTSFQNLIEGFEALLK
T4 sequence (P29597 whole entry): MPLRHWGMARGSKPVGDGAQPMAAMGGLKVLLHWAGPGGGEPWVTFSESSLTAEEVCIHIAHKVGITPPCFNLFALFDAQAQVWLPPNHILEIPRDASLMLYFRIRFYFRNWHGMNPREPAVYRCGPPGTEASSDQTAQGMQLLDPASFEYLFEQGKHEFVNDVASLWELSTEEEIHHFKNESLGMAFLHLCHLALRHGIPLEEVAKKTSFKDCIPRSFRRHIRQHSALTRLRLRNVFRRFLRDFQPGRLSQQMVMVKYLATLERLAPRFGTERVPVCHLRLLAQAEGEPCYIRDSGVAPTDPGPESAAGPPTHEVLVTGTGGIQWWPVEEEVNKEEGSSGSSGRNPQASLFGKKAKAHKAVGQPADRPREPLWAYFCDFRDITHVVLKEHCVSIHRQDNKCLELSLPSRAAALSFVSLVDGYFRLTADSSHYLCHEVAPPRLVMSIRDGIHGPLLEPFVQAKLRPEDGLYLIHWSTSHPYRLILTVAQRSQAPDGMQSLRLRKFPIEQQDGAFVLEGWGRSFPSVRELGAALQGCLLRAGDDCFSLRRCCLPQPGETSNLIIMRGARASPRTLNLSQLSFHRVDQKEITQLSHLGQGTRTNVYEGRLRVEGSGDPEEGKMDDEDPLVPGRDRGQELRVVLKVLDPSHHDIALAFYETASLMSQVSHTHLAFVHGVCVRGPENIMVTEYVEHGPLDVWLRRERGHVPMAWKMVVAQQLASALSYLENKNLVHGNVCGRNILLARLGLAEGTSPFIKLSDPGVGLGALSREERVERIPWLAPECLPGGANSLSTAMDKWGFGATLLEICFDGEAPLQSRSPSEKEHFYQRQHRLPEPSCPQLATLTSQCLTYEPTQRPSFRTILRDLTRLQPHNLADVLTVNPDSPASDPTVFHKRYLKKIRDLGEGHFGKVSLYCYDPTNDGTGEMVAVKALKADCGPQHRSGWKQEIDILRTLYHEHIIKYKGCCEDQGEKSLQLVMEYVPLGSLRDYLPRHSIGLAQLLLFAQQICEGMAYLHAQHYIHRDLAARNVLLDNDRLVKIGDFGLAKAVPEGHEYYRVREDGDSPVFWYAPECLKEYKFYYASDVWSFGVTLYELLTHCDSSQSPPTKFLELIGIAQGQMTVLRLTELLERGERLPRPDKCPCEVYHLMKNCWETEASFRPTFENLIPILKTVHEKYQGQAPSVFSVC
T2 sequence (O60674 whole entry): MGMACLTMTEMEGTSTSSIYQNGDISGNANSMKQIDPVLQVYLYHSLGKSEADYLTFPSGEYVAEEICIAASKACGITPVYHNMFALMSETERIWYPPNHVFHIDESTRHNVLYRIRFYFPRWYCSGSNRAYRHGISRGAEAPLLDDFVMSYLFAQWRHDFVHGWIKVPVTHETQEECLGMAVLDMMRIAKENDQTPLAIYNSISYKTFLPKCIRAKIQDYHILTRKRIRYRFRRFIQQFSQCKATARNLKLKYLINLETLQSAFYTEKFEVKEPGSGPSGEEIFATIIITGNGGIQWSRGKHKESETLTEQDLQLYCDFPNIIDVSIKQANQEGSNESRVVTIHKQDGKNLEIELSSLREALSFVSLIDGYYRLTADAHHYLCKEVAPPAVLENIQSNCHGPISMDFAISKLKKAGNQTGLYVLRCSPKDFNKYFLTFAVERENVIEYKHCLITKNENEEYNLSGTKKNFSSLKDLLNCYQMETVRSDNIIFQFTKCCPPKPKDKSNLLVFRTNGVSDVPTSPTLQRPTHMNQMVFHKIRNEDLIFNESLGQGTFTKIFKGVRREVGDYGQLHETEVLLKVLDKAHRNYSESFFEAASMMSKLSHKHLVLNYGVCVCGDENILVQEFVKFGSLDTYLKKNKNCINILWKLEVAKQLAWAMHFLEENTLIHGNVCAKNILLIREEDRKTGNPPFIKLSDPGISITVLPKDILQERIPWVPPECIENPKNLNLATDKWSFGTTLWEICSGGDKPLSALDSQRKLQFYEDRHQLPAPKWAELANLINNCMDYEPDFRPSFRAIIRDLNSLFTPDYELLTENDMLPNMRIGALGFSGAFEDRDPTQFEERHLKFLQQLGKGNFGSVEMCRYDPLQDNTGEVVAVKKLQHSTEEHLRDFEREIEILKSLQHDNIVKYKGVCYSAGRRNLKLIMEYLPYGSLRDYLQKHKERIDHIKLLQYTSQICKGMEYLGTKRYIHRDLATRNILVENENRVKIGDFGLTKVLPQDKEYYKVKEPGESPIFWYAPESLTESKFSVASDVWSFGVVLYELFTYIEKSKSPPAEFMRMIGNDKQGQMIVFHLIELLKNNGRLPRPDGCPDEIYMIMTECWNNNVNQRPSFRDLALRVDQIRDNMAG

In general, inhibition refers to the change of the read-out against control, counted positive when it falls. For the compound `CN(c1ncnc2[nH]ccc12)[C@@H]1CCN(C(=O)CC#N)C1` [Example 1, (R)-3-(3-(methyl(7H-pyrrolo[2,3-d]pyrimidine-4-yl)amino)pyrrolidine-1-yl)-3-oxopropanenitrile], the inhibition at 1 µM in experiment [1] amounted to 97%; in experiment [2], 70%; in experiment [3], 20%.

As for `CN(c1ncnc2[nH]ccc12)[C@@H]1CCN(CCC#N)C1` [Example 2, (R)-3-(3-(methyl(7H-pyrrolo[2,3-d]pyrimidine-4-yl)amino)pyrrolidine-1-yl)propanenitrile], the inhibition at 1 µM was 91% in experiment [1], 42% in experiment [2], 39% in experiment [3] and 58% in experiment [4]. In addition, the JAK1/JAK2 in experiment [1] is 2.17.

As for `CCCCN1CC[C@@H](N(C)c2ncnc3[nH]ccc23)C1` [Example 3, (R)—N-(1-butylpyrrolidine-3-yl)-N-methyl-7H-pyrrolo[2,3-d]pyrimidine-4-amine], the inhibition at 1 µM in experiment [1] was determined as 52%; in experiment [2], 6%; in experiment [3], 4%; in experiment [4] it was 8%. The JAK1/JAK2 entry in experiment [1] is recorded as “∞”.

Consider `CN(c1ncnc2[nH]ccc12)[C@@H]1CCN(C(=O)CN=[N+]=[N-])C1` [Example 4, (R)-2-azido-1-(3-(methyl(7H-pyrrolo[2,3-d]pyrimidine-4-yl)amino)pyrrolidine-1-yl)ethane-1-one], for which the inhibition at 1 µM came to 98% in experiment [1], 79% in experiment [2], 33% in experiment [3] and 86% in experiment [4]. Further, in experiment [1], the JAK1/JAK2 was found to be 1.24.

Turning to `CC(C)CC(=O)N1CC[C@@H](N(C)c2ncnc3[nH]ccc23)C1` [Example 5, (R)-3-methyl-1-(3-(methyl(7H-pyrrolo[2,3-d]pyrimidine-4-yl)amino)pyrrolidine-1-yl)butane-1-one], the inhibition at 1 µM in experiment [1] amounted to 93%; in experiment [2], 13%; in experiment [3], 10%; in experiment [4] it was 63%. The JAK1/JAK2 in experiment [1] is reported as 7.15.

In the case of `CC(C)COC(=O)N1CC[C@@H](N(C)c2ncnc3[nH]ccc23)C1` [Example 6, Isobutyl (R)-3-(methyl(7H-pyrrolo[2,3-d]pyrimidine-4-yl)amino)pyrrolidine-1-carboxylate], the inhibition at 1 µM in experiment [1] is 93%; in experiment [2], 9%; in experiment [3], 9%; in experiment [4], 34%. In addition, the JAK1/JAK2 in experiment [1] is given as 10.33.

As to `CN(c1ncnc2[nH]ccc12)[C@@H]1CCN(C(=O)Nc2ccccc2)C1` [Example 7, (R)-3-(methyl(7H-pyrrolo[2,3-d]pyrimidine-4-yl)amino)-N-phenylpyrrolidine-1-carboxamide], the inhibition at 1 µM in experiment [1] amounted to 97%; in experiment [2], 68%; in experiment [3] it was 42%; in experiment [4], 72%. Moreover, in experiment [1], the JAK1/JAK2 is 1.43.

With `CN(c1ncnc2[nH]ccc12)[C@@H]1CCN(S(C)(=O)=O)C1` [Example 8, (R)—N-methyl-N-(1-(methylsulfonyl)pyrrolidine-3-yl)-7H-pyrrolo[2,3-d]pyrimidine-4-amine], the inhibition at 1 µM in experiment [1] worked out at 91%; in experiment [2], 7%; in experiment [3], 21%; in experiment [4], 59%. Moreover, the JAK1/JAK2 in experiment [1] is listed as 13.00.

With `CN(c1ncnc2[nH]ccc12)[C@@H]1CCN(S(=O)(=O)C(F)(F)F)C1` [Example 9, (R)—N-methyl-N-(1-((trifluoromethyl)sulfonyl)pyrrolidine-3-yl)-7H-pyrrolo[2,3-d]pyrimidine-4-amine], the inhibition at 1 µM in experiment [1] came out at 90%; in experiment [2], 9%; in experiment [3] it was 11%; in experiment [4], 59%. Moreover, the JAK1/JAK2 in experiment [1] turned out to be 10.00.

In the case of `CCS(=O)(=O)N1CC[C@@H](N(C)c2ncnc3[nH]ccc23)C1` [Example 10, (R)—N-(1-(ethylsulfonyl)pyrrolidine-3-yl)-N-methyl-7H-pyrrolo[2,3-d]pyrimidine-4-amine], the inhibition at 1 µM was found to be 94% in experiment [1], 27% in experiment [2], 22% in experiment [3] and 74% in experiment [4]. Further, in experiment [1], the JAK1/JAK2 was 3.48.

With `CCCS(=O)(=O)N1CC[C@@H](N(C)c2ncnc3[nH]ccc23)C1` [Example 11, (R)—N-methyl-N-(1-(propylsulfonyl)pyrrolidine-3-yl)-7H-pyrrolo[2,3-d]pyrimidine-4-amine], the inhibition at 1 µM in experiment [1] came to 95%; in experiment [2] it was 62%; in experiment [3], 20%; in experiment [4], 78%. The JAK1/JAK2 in experiment [1] stood at 1.55.

For `CC(C)S(=O)(=O)N1CC[C@@H](N(C)c2ncnc3[nH]ccc23)C1` [Example 12, (R)—N-(1-(isopropylsulfonyl)pyrrolidine-3-yl)-N-methyl-7H-pyrrolo[2,3-d]pyrimidine-4-amine], the inhibition at 1 µM in experiment [1] was determined as 86%; in experiment [2], 11%; in experiment [3] it was 13%; in experiment [4] it was 47%. The JAK1/JAK2 in experiment [1] turned out to be 7.82.

Take `CN(c1ncnc2[nH]ccc12)[C@@H]1CCN(S(=O)(=O)c2cn(C)cn2)C1` [Example 13, (R)—N-methyl-N-(1-((1-methyl-1H-imidazole-4-yl)sulfonyl)pyrrolidine-3-yl)-7H-pyrrolo[2,3-d]pyrimidine-4-amine]: the inhibition at 1 µM is 52% in experiment [1], 9% in experiment [2], 4% in experiment [3] and 17% in experiment [4]. Moreover, in experiment [1], the JAK1/JAK2 came out at 5.78.

On to `CN(c1ncnc2[nH]ccc12)[C@@H]1CCN(S(=O)(=O)c2ccccc2)C1` [Example 14, (R)—N-methyl-N-(1-(phenylsulfonyl)pyrrolidine-3-yl)-7H-pyrrolo[2,3-d]pyrimidine-4-amine], for which the inhibition at 1 µM in experiment [1] turned out to be 99%; in experiment [2] it was 69%; in experiment [3], 17%; in experiment [4] it was 91%. Moreover, the JAK1/JAK2 in experiment [1] turned out to be 1.43.

As to `CN(c1ncnc2[nH]ccc12)[C@@H]1CCN(S(=O)(=O)c2ccccc2F)C1` [Example 15, (R)—N-(1-((2-fluorophenyl)sulfonyl)pyrrolidine-3-yl)-N-methyl-7H-pyrrolo[2,3-d]pyrimidine-4-amine], the inhibition at 1 µM stood at 98% in experiment [1], 66% in experiment [2], 25% in experiment [3] and 92% in experiment [4]. Also, the JAK1/JAK2 in experiment [1] was determined as 1.48.

Consider `CN(c1ncnc2[nH]ccc12)[C@@H]1CCN(S(=O)(=O)c2cccc(F)c2)C1` [Example 16, (R)—N-(1-((3-fluorophenyl)sulfonyl)pyrrolidine-3-yl)-N-methyl-7H-pyrrolo[2,3-d]pyrimidine-4-amine], for which the inhibition at 1 µM in experiment [1] was determined as 98%; in experiment [2], 93%; in experiment [3], 47%; in experiment [4] it was 98%. Further, the JAK1/JAK2 in experiment [1] is 1.05.

Consider `CN(c1ncnc2[nH]ccc12)[C@@H]1CCN(S(=O)(=O)c2ccc(F)cc2)C1` [Example 17, (R)—N-(1-((4-fluorophenyl)sulfonyl)pyrrolidine-3-yl)-N-methyl-7H-pyrrolo[2,3-d]pyrimidine-4-amine], for which the inhibition at 1 µM in experiment [1] was found to be 99%; in experiment [2], 81%; in experiment [3], 29%; in experiment [4], 92%. Further, the JAK1/JAK2 in experiment [1] is given as 1.22.

As to `CN(c1ncnc2[nH]ccc12)[C@H]1CCN(C(=O)CC#N)C1` [Example 31, (S)-3-(3-(methyl(7H-pyrrolo[2,3-d]pyrimidine-4-yl)amino)pyrrolidine-1-yl)-3-oxopropanenitrile], the inhibition at 1 µM in experiment [1] was 23%; in experiment [2] it was -6%; in experiment [3] it was 27%.

Values taken from patent US10407430B2, “Janus kinase 1 selective inhibitor and pharmaceutical use thereof” (YANG JI CHEMICAL CO., LTD., priority 2015, dated 2019).
